Results as given in US5659012A, “Peptide which binds SH2 domains of protein tyrosine phosphatase SH-PTP1” (Whitehead Institute for Biomedical Research, priority 1995, dated 1997).

Tests used:
[1] = test system: 32D cells expressing the EPO-R mutant Y429,431F; assay: Proliferation assay (3H-Thymidine incorporation), EPO-dependent proliferation; format: cell-based
Method: (§1) FIG. 2 is a graphic illustration of EPO-dependent proliferation of 32D cells expressing the wt EPO-R and the EPO-R mutant Y429, 431F. […] Each data point represents the mean of triplicate determinations±standard deviation.
(§2) To assess the role of SH-PTP1 in regulating proliferative signals generated by the EPO-R, the proliferation of 32D cells expressing wt EPO-R or EPO-R Y429,431F was measured. […] When grown in EPO, the half-maximal proliferation of pools of 32D cells expressing the wt EPO-R required 0.25 units EPO/ml and maximal proliferation required about 1 units/ml (FIG. 2). […] Pools of 32D cells expressing the mutant EPO-R Y429,431F achieved half-maximal proliferation in as little as 0.025 units EPO/ml, reaching a maximum rate at 0.1 units/ml (FIG. 2). At the highest EPO concentrations employed, the rate of proliferation of cell pools expressing the wt EPO-R or the EPO-R mutant Y429,431F was the same.
(§3) Proliferation assays were performed in 96 well plates with 200 μl/well. 5×10^4 32D cells/ml were seeded in the presence of indicated amounts of cytokines (EPO O--5 units/ml; IL3 0-100 units/ml). After 48 hours, 1 μCi 3H-Thymidine (DuPont NEN)/well was added for another 3 hours. The labeled cells were then harvested by a 96 well plate harvester (Scantron Instruments Inc.) and the amount of radioactively labeled DNA was quantitated in a scintillation counter.

[2] = test system: 32D cells expressing the wt EPO-R; assay: as above; format: cell-based; conditions: pools of 32D cells expressing wt EPO-R
Method: as §1, §2, §3

[3] = pools of 32D cells expressing mutant EPO-R Y429,431F

Substance: Erythropoietin [EPO]
- amount of EPO allowing proliferation relative to the normal amount ([1]; mutant EPO-R unable to bind SH-PTP1 versus wt EPO-R): one-fifth to one-tenth
- EPO giving half-maximal proliferation [1, 3]: 0.025 units EPO/ml
- EPO giving maximum rate of proliferation [1, 3]: 0.1 units/ml
- EPO required for maximal proliferation [2]: about 1 units/ml
- EPO required for half-maximal proliferation ([2]; 48 h + 3 h 3H-Thymidine): 0.25 units EPO/ml
